The species named for the test is Danio rerio. Description: Protection against neomycin-induced hair cell death in AB zebra fish larvae assessed as increase in hair cell survival preincubated for 1 hr followed by neomycin challenge for 1 hr by DASPEI staining-based epifluorescence dissecting microscopic method. The class given is functional.
The term EC50 denotes the concentration that produces a half-maximal response. On to `CCC1CCc2c(sc(NC(=O)Nc3ccc(Cl)cc3)c2C(N)=O)C1` (stereo not given), for which the EC50 is over 25 µM.
As for `CC(C)N1CCc2c(sc(NC(=O)Nc3ccc(Cl)cc3)c2C(N)=O)C1`, the EC50 turned out to be 1.49 µM.
Take `NC(=O)c1c(NC(=O)Nc2ccc(Cl)cc2)sc2c1[C@H]1CC[C@@H](C2)N1`: the EC50 is 5 µM.
For the compound `CC(C)(C)OC(=O)CCN1CCc2c(sc(NC(=O)Nc3ccc(Cl)cc3)c2C(N)=O)C1`, the concentration giving a half-maximal response (EC50) turned out to be 1.1 µM.
With `CCN1CCc2c(sc(NC(=O)NCc3cccc(Cl)c3)c2C(N)=O)C1`, the EC50 is over 25 µM.
Consider `NC(=O)c1c(NC(=O)Nc2ccc(Cl)cc2)sc2c1CCN(CC1CCCC1)C2`, for which the EC50 was 1.83 µM.
Take `CN1[C@@H]2CC[C@H]1c1sc(NC(=O)Nc3ccc(Cl)cc3)c(C(N)=O)c1C2` (single isomer, unassigned): the concentration for a half-maximal effect (EC50) was 7.21 µM.
For the compound `CCN1CCc2c(sc(N)c2C(N)=O)C1`, the EC50 was over 25 µM.
As to `NC(=O)c1c(NC(=O)Nc2ccc(Cl)cc2)sc2c1CCN(CC1CC1)C2`, the EC50 worked out at 1.22 µM.
Regarding `CC(C)(C)CN1CCc2c(sc(NC(=O)Nc3ccc(Cl)cc3)c2C(N)=O)C1`, the EC50 worked out at 5.56 µM.
`CN1[C@H]2CC[C@@H]1c1c(sc(NC(=O)Nc3ccc(Cl)cc3)c1C(N)=O)C2`: the concentration for a half-maximal effect (EC50) is over 2.25 µM.
The value for `CC(C)(C)OC(=O)CCC[N+]1(C)CCc2c(sc(NC(=O)Nc3ccc(Cl)cc3)c2C(N)=O)C1` (stereo not given) was 0.25 µM; that for `CCN1CCc2c(ccc(NC(=O)Nc3ccc(Cl)cc3)c2C(N)=O)C1` was over 25 µM; that for `CN1CCc2c(sc(NC(=O)Nc3ccc(Cl)cc3)c2C(N)=O)C1` was 4.7 µM.
Regarding `CC(C)(C)OC(=O)CCCCN1CCc2c(sc(NC(=O)Nc3ccc(Cl)cc3)c2C(N)=O)C1`, the EC50 came to 0.71 µM.
In the case of `CCN1CCc2c(sc(NC(=O)NCCN3CCOCC3)c2C(N)=O)C1`, the EC50 is over 25 µM.
The value for `CCN1CCc2c(sc(NC(=O)NCC3CCCO3)c2C(N)=O)C1` (stereo not given) was over 25 µM.
The value for `COCCC[N+]1(C)CCc2c(sc(NC(=O)Nc3ccc(Cl)cc3)c2C(N)=O)C1` (stereo not given) was 0.48 µM; that for `CC(C)(C)OC(=O)CCCC[N+]1(C)CCc2c(sc(NC(=O)Nc3ccc(Cl)cc3)c2C(N)=O)C1` (stereo not given) was 0.14 µM.
For the compound `Cc1c(CN2CCOCC2)sc(NC(=O)Nc2ccc(Cl)cc2)c1C(N)=O`, the EC50 amounted to 6.92 µM.
For `CCN1CCc2c(sc(NC(=O)Nc3ccc(I)cc3)c2C(N)=O)C1`, the half-maximal effective concentration (EC50) was determined as 1.62 µM.
Consider `CCN1CCc2c(sc(NC(=O)Nc3ccc(Cl)cc3Cl)c2C(N)=O)C1`, for which the EC50 is 11.5 µM.
With `COCCCN1CCc2c(sc(NC(=O)Nc3ccc(Cl)cc3)c2C(N)=O)C1`, the EC50 is 2.4 µM.
With `CCN1CCc2c(sc(NC(=O)Nc3ccc(Br)cc3)c2C(N)=O)C1`, the concentration for a half-maximal effect (EC50) turned out to be 3.13 µM.
For the compound `CCN1CCc2c(sc(NC(=O)CN3CCCCC3)c2C(N)=O)C1`, the EC50 is over 25 µM.
The value for `CCN1CCc2c(sc(NC(=O)Nc3cccc(C)c3)c2C(N)=O)C1` was 13 µM.
The value for `CCN1CCc2c(sc(NC(=S)Nc3ccc(Cl)cc3)c2C(N)=O)C1` was 6.57 µM; that for `CCN1CCc2c(sc(NC(=O)Nc3ccc(Cl)cc3)c2C(=O)NCCO)C1` was 9.4 µM.
As for `CCN1CCc2c(sc(NC(=O)Nc3ccc(Cl)cc3)c2C(=O)c2nnco2)C1`, the concentration giving a half-maximal response (EC50) was over 25 µM.
Turning to `CCN1CCc2c(sc(NC(=O)Nc3ccccc3)c2C(N)=O)C1`, the EC50 was over 25 µM.
Take `NC(=O)c1c(NC(=O)Nc2ccc(Cl)cc2)sc2c1[C@@H]1CC[C@H](C2)N1`: the EC50 was found to be 0.03 µM.
Regarding `NC(=O)c1c(NC(=O)Nc2ccc(Cl)cc2)sc2c1CCCC2`, the EC50 was over 25 µM.
On to `CC(C)(C)OC(=O)CN1CCc2c(sc(NC(=O)Nc3ccc(Cl)cc3)c2C(N)=O)C1`, for which the EC50 is over 25 µM.
Take `CCN1CCc2c(sc(NC(=O)Nc3ccc(Cl)cc3)c2C(=O)NCCN2CCOCC2)C1`: the EC50 came out at 9.38 µM.
Regarding `CC(C)C[N+]1(C)CCc2c(sc(NC(=O)Nc3ccc(Cl)cc3)c2C(N)=O)C1` (stereo not given), the EC50 came to 0.38 µM.
Regarding `NC(=O)c1c(NC(=O)Nc2ccc(Cl)cc2)sc2c1CCN(CC1CCC1)C2`, the EC50 was 1.36 µM.
Take `CCN1CCc2c(sc(NC(=O)Nc3ccc4ccccc4c3)c2C(N)=O)C1`: the EC50 stood at 1.78 µM.
With `CCN1CCc2c(sc(NC(=O)Nc3ccc(Cl)cc3)c2C#N)C1`, the EC50 was over 25 µM.
In the case of `C[N+]1(CC2CCC2)CCc2c(sc(NC(=O)Nc3ccc(Cl)cc3)c2C(N)=O)C1` (stereo not given), the EC50 is 0.21 µM.
With `C[N+]1(CC2CCCC2)CCc2c(sc(NC(=O)Nc3ccc(Cl)cc3)c2C(N)=O)C1` (stereo not given), the EC50 is 0.2 µM.
With `CCN1CCc2c(sc(NC(=O)[C@@H]3CCCN3)c2C(N)=O)C1` the figure was over 25 µM; with `CN1C2CCC1c1sc(NC(=O)Nc3ccc(Cl)cc3)c(C(N)=O)c1C2` (stereo not given), 0.62 µM; with `NC(=O)c1c(NC(=O)Nc2ccc(Cl)cc2)sc2c1CCN(CC1CCCCC1)C2`, 1.89 µM.
With `CCN1CCCc2c(sc(NC(=O)Nc3ccc(Cl)cc3)c2C(N)=O)C1` the figure was 3.98 µM.
With `CC(C)(C)OC(=O)N1CCc2c(sc(NC(=O)Nc3ccc(Cl)cc3)c2C(N)=O)C1`, the concentration for a half-maximal effect (EC50) is over 25 µM.
Consider `CCN1CCc2c(sc(NC(=O)C3(C(=O)Nc4ccc(Cl)cc4)CC3)c2C(N)=O)C1`, for which the EC50 was over 25 µM.
For `C[N+]1(CC2CCCCC2)CCc2c(sc(NC(=O)Nc3ccc(Cl)cc3)c2C(N)=O)C1` (stereo not given), the EC50 is 0.1 µM.
On to `CCN1CCc2c(sc(NC(=O)Nc3ccc(C(F)(F)F)cc3)c2C(N)=O)C1`, for which the 50% effective concentration (EC50) is 2.91 µM.
Take `CCN1CCc2sc(NC(=O)Nc3ccc(Cl)cc3)c(C(N)=O)c2C1`: the half-maximal effective concentration (EC50) is 4.61 µM.
Turning to `CC[N+]1(CC)CCc2c(sc(NC(=O)Nc3ccc(Cl)cc3)c2C(N)=O)C1`, the EC50 turned out to be 0.45 µM.
For the compound `CCC(C)(C)C1CCc2c(sc(NC(=O)Nc3ccc(Cl)cc3)c2C(N)=O)C1` (stereo not given), the EC50 was over 25 µM.
For `CC(C)(C)OC(=O)CCCN1CCc2c(sc(NC(=O)Nc3ccc(Cl)cc3)c2C(N)=O)C1`, the EC50 was determined as 0.56 µM.
Take `CCN1CCc2c(sc(NC(=O)Nc3cccc(C#N)c3)c2C(N)=O)C1`: the EC50 is 10.3 µM.
Take `O=C(Cc1ccc(Cl)cc1)Nc1nc(C(=O)N2CCCCC2)cs1`: the EC50 is over 25 µM.
With `CC(C)[N+]1(C)CCc2c(sc(NC(=O)Nc3ccc(Cl)cc3)c2C(N)=O)C1` (stereo not given) the figure was 0.96 µM.
With `NC(=O)c1c(NC(=O)Nc2ccc(Cl)cc2)sc2c1CCNC2` the figure was 3.26 µM; with `NC(=O)c1c(NC(=O)Nc2ccc(Cl)cc2)sc2c1CCN(CCCNC(=O)CCc1cccc3ccccc13)C2`, 0.11 µM; with `NC(=O)c1c(NC(=O)Nc2ccc(Cl)cc2)sc2c1CCN(CCCNC(=O)CCc1cccnc1)C2`, 0.47 µM.
`C[N+](C)(C)C1CCc2c(sc(NC(=O)Nc3ccc(Cl)cc3)c2C(N)=O)C1` (stereo not given): the EC50 was 5.87 µM.
In the case of `CCN1CCc2c(sc(NC(=O)Nc3ccc(-c4ccccc4)cc3)c2C(N)=O)C1`, the EC50 amounted to 3.39 µM.
The value for `CCN1CCc2c(sc(NC(=O)C3(c4ccc(Cl)cc4)CC3)c2C(N)=O)C1` was over 25 µM; that for `C[N+]1(CC2CC2)CCc2c(sc(NC(=O)Nc3ccc(Cl)cc3)c2C(N)=O)C1` (stereo not given) was 0.36 µM.
The value for `CCN1CCc2c(sc(NC(=O)Nc3ccc(Cl)cc3)c2C(=O)N2CCOCC2)C1` was over 25 µM; that for `CCN1CCc2c(sc(NC(=O)c3ccccc3)c2C(N)=O)C1` was over 25 µM.
With `CCN1Cc2sc(NC(=O)Nc3ccc(Cl)cc3)c(C(N)=O)c2C1` the figure was 4.34 µM; with `CC(C)(C)OC(=O)CCCCCN1CCc2c(sc(NC(=O)Nc3ccc(Cl)cc3)c2C(N)=O)C1`, 0.62 µM; with `CCN1CCc2sc(NC(=O)Nc3ccc(Cl)cc3)c(C(N)=O)c2CC1`, 5.8 µM.
Take `CC(C)CN1CCc2c(sc(NC(=O)Nc3ccc(Cl)cc3)c2C(N)=O)C1`: the EC50 turned out to be 4.51 µM.
On to `CCCN1CCc2c(sc(NC(=O)Nc3ccc(Cl)cc3)c2C(N)=O)C1`, for which the EC50 came out at 3.5 µM.
The value for `CN1[C@H]2CC[C@@H]1c1sc(NC(=O)Nc3ccc(Cl)cc3)c(C(N)=O)c1C2` (single isomer, unassigned) was 0.27 µM.
With `NC(=O)c1c(NC(=O)Nc2ccc(Cl)cc2)sc2c1C1CCC(C2)N1` (racemic) the figure was 0.11 µM.
With `CC1CCc2nc(NC(=O)Nc3ccc(Cl)cc3)sc2C1` (stereo not given) the figure was over 25 µM.
Take `CCN1CCc2c(sc(NC(=O)Nc3ccc(Cl)cc3)c2C(=O)NC)C1`: the EC50 was over 25 µM.
With `CCN1CCc2c(sc(NC=O)c2C(N)=O)C1` the figure was over 25 µM; with `CCCCc1nnc(NC(=O)Nc2ccc(Cl)cc2)s1`, over 25 µM; with `CCN1CCc2c(sc(NC(=O)Nc3cccc(Cl)c3Cl)c2C(N)=O)C1`, 17.4 µM.
Consider `NC(=O)c1c(NC(=O)Nc2ccc(Cl)cc2)sc2c1C[C@H]1CC[C@@H]2N1`, for which the concentration giving a half-maximal response (EC50) is 3.92 µM.
With `CC(C)(C)OC(=O)CCCCC[N+]1(C)CCc2c(sc(NC(=O)Nc3ccc(Cl)cc3)c2C(N)=O)C1` (stereo not given) the figure was 0.11 µM.
For the compound `CCN1CCc2c(sc(NC(=O)Nc3ccc(Cl)cc3)c2C(=O)c2nc(C)no2)C1`, the EC50 was over 25 µM.
The value for `CN1C2CCC1c1c(sc(NC(=O)Nc3ccc(Cl)cc3)c1C(N)=O)C2` (racemic) was 0.36 µM.
Turning to `CCN1CCc2c(sc(NC(=O)Nc3ccc(Cl)cc3)c2C(=O)O)C1`, the EC50 was over 25 µM.
In the case of `C[N+]1(C2CCc3c(sc(NC(=O)Nc4ccc(Cl)cc4)c3C(N)=O)C2)CCC1` (stereo not given), the EC50 worked out at 3.92 µM.
As to `CCN1CCc2c(sc(NC(=O)Nc3ccc(Cl)cc3)c2C(=O)NC2COC2)C1`, the EC50 is over 25 µM.
Consider `CCN1CCc2c(sc(NC(=O)Nc3ccc(Cl)cc3)c2C(=O)OC)C1`, for which the EC50 was over 25 µM.
Regarding `NC(=O)c1c(NC(=O)Nc2ccc(Cl)cc2)sc2c1CC1CCC2N1` (stereo not given), the EC50 was determined as 0.21 µM.
For the compound `CCN1CCc2c(sc(NC(=O)Nc3cscc3C(=O)OC)c2C(N)=O)C1`, the EC50 is over 25 µM.
For `NC(=O)c1c(NC(=O)Nc2ccc(Cl)cc2)sc2c1CCN(C1CCOCC1)C2`, the EC50 was 2.83 µM.
The value for `CCC(O)c1cc2c(cc1NC(=O)Nc1ccc(Cl)cc1)OCCO2` (stereo not given) was over 25 µM; that for `NC(=O)c1c(NC(=O)Nc2ccc(Cl)cc2)sc2c1C[C@@H]1CC[C@H]2N1` was 0.27 µM; that for `CC(C)(C)C[N+]1(C)CCc2c(sc(NC(=O)Nc3ccc(Cl)cc3)c2C(N)=O)C1` (stereo not given) was 0.29 µM.
